# Test results as given in ChEMBL document CHEMBL5376027, “Discovery of 5-trifluoromethyl-2-aminopyrimidine derivatives as potent dual inhibitors of FLT3 and CHK1” (RSC Med Chem, 2024).
# Active and inactive are the calls of the source. The calls are words filed in the database; no cut-off is given here.
# Experiments:
# [1] = target: Cyclin-dependent kinase 2 (Homo sapiens, UniProt P24941); assay: Inhibition of CDK2 (unknown origin) incubated for 1 hrs by fluorescence microplate reader
# [2] = target: T1, Serine/threonine-protein kinase Chk1 (Homo sapiens) (UniProt O14757); conditions: MV4-11, dose 50-200 nM
# T1 sequence (whole entry): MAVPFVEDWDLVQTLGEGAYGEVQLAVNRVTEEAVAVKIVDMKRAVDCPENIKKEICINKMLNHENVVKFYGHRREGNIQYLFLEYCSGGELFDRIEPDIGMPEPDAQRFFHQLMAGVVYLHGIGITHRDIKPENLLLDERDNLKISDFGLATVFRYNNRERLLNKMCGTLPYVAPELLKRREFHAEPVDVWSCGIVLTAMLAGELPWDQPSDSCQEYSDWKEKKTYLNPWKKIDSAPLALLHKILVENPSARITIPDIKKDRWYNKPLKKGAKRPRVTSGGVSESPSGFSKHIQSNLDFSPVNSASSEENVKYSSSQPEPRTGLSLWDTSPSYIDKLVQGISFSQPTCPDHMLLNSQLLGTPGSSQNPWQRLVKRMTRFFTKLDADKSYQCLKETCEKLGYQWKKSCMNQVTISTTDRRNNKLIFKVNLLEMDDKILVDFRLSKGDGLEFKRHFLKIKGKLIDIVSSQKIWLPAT
# Description: Inhibition of CHK1 in human MV4-11 cells assessed as decrease in c-Myc protein expression level at 50 to 200 nM by Western blot analysis
# [3] = target: T2, Serine/threonine-protein kinase 17B (Homo sapiens, UniProt O94768); assay: Inhibition of DRAK2 (unknown origin) expressed in Escherichia coli incubated for 2 hrs by ADP-Glo assay
# T2 sequence (O94768 whole entry): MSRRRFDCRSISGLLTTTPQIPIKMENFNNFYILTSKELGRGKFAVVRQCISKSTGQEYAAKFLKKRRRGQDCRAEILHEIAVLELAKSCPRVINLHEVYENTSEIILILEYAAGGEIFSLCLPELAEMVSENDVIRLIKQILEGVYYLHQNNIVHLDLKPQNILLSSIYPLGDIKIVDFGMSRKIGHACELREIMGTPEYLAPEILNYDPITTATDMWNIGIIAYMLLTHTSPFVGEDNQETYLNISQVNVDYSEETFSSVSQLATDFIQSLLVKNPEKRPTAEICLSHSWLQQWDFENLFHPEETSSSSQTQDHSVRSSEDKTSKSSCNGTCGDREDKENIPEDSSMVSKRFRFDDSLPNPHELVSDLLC
# [4] = target: Mast/stem cell growth factor receptor Kit (Homo sapiens, UniProt P10721)
# Description: Inhibition of c-kit (unknown origin) using peptide substrate incubated for 1 hrs in presence of ATP by fluorescence microplate reader analysis
# [5] = target: Tyrosine-protein kinase BTK (Homo sapiens, UniProt Q06187); assay: Inhibition of BTK (unknown origin) using peptide substrate incubated for 1 hrs in presence of ATP by fluorescence microplate reader
# [6] = target: Epidermal growth factor receptor (Homo sapiens, UniProt P00533); assay: Inhibition of EGFR (unknown origin) using peptide substrate incubated for 1 hrs in presence of ATP by fluorescence microplate reader
# [7] = target: T1, Serine/threonine-protein kinase Chk1 (Homo sapiens); conditions: MV4-11, dose 50-200 nM; remark: listed apart in the source
# Description: Inhibition of CHK1 phosphorylation at S296 residue in human MV4-11 cells at 50 to 200 nM by Western blot analysis
# [8] = target: T3, Serine/threonine-protein kinase Chk1 (Homo sapiens, UniProt O14757)
# T3 sequence (O14757 whole entry): T1 sequence (whole entry)
# Description: Inhibition of CHK1 (unknown origin) using peptide substrate incubated for 1 hrs in presence of ATP by fluorescence microplate reader analysis
# [9] = target: Ribosomal protein S6 kinase; assay: Inhibition of p70S6K (unknown origin) using peptide substrate incubated for 1 hrs in presence of ATP by fluorescence microplate reader; format: protein assay, Homo sapiens
# hERG (KCNH2) = hERG (KCNH2) (Homo sapiens, UniProt Q12809); assay: Inhibition of hERG expressed in HEK293 cells at 10 uM incubated by patch clamp assay relative to control; format: toxicity, cell-based; conditions: HEK293 cells that express hERG
# [10] = target: Serine/threonine-protein kinase pim-1 (Homo sapiens, UniProt P11309); assay: Inhibition of PIM1 (unknown origin) using peptide substrate incubated for 1 hrs in presence of ATP by fluorescence microplate reader
# [11] = target: T4, Interleukin-1 receptor-associated kinase 4 (Homo sapiens, UniProt Q9NWZ3); assay: Inhibition of IRAK4 (unknown origin) using peptide substrate incubated for 1 hrs in presence of ATP by fluorescence microplate reader
# T4 sequence (Q9NWZ3 whole entry): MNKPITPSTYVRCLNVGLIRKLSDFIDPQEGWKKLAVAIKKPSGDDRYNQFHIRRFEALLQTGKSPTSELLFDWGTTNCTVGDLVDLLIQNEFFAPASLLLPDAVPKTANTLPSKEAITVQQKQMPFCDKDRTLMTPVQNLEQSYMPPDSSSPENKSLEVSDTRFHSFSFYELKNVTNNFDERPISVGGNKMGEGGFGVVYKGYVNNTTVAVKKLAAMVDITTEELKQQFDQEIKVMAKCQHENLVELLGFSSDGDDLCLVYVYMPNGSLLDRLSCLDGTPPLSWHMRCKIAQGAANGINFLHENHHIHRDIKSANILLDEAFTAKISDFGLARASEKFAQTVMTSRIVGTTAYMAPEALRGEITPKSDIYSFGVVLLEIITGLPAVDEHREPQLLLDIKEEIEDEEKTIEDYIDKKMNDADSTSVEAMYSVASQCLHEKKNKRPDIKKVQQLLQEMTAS
# [12] = target: T5, Tyrosine-protein kinase JAK3 (Homo sapiens, UniProt P52333); assay: Inhibition of JAK3 (unknown origin) using peptide substrate incubated for 1 hrs in presence of ATP by fluorescence microplate reader
# T5 sequence (P52333 whole entry): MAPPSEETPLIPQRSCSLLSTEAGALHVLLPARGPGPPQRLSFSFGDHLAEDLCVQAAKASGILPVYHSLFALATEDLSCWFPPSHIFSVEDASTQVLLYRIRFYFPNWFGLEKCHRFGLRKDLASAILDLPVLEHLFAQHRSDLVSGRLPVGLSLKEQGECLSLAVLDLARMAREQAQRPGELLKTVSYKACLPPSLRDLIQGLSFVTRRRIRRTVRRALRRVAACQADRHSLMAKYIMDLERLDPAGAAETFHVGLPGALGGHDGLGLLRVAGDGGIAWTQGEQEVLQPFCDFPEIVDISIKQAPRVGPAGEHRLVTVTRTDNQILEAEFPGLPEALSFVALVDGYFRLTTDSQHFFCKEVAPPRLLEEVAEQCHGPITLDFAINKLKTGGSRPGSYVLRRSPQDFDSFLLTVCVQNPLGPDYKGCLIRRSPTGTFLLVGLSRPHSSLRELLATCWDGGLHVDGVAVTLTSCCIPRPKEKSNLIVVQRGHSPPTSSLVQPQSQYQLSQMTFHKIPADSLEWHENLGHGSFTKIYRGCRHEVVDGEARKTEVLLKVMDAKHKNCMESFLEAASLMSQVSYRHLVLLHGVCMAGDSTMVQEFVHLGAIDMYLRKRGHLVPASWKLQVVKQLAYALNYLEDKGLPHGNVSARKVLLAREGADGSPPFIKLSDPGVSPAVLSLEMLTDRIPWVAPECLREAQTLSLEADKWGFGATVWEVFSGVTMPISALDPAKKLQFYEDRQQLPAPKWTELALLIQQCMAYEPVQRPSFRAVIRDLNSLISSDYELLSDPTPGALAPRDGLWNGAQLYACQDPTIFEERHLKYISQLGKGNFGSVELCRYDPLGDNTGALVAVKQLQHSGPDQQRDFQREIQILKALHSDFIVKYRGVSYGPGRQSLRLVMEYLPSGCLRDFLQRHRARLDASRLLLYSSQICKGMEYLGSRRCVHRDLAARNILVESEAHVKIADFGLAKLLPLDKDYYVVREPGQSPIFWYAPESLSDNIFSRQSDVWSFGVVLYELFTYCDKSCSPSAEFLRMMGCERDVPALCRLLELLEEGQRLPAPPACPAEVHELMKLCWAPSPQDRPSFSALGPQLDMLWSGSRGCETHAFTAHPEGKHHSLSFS
# Aurora kinase A = target: T6, Aurora kinase A (Homo sapiens, UniProt O14965); assay: Inhibition of Aurora A (unknown origin) expressed in Escherichia coli using peptide substrate incubated for 1 hrs in presence of ATP by fluorescence microplate reader
# T6 sequence (O14965 whole entry): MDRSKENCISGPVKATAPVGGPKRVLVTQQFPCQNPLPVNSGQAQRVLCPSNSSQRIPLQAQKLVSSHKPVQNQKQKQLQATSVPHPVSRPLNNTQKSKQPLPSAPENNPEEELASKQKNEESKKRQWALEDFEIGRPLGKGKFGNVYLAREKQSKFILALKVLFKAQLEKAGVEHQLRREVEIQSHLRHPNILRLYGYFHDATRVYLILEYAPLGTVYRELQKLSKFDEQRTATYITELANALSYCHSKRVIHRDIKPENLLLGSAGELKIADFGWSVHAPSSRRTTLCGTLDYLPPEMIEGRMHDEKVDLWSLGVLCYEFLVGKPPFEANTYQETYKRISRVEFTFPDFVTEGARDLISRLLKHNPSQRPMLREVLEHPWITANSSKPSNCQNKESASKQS
# Mast/stem cell growth factor receptor Kit, sequence (P10721 whole entry): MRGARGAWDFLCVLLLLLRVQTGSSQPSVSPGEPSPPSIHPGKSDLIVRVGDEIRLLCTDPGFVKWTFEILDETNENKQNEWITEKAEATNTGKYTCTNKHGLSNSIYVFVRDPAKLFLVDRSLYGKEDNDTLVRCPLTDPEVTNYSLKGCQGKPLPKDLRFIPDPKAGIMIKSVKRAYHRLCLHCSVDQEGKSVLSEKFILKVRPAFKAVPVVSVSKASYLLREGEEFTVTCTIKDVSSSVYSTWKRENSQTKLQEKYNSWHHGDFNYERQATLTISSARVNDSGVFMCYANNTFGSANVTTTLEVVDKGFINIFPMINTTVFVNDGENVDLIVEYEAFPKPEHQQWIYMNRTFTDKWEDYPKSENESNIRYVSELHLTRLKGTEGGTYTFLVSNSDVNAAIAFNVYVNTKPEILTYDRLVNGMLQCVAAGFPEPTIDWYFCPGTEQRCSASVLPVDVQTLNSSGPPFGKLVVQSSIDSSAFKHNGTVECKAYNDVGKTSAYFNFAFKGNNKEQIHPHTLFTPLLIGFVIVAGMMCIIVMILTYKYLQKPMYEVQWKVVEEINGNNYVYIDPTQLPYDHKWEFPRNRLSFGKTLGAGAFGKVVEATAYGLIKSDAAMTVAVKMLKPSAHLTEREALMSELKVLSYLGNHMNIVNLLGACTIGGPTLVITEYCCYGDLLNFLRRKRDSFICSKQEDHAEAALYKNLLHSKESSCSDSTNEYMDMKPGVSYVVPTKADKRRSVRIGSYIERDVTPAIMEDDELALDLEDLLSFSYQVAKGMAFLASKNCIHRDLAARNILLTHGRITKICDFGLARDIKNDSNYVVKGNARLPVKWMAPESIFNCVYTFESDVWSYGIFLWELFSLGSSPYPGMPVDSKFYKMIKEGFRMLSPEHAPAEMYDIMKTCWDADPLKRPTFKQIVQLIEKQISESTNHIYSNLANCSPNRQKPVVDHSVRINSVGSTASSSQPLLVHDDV
# hERG (KCNH2), sequence (Q12809 whole entry): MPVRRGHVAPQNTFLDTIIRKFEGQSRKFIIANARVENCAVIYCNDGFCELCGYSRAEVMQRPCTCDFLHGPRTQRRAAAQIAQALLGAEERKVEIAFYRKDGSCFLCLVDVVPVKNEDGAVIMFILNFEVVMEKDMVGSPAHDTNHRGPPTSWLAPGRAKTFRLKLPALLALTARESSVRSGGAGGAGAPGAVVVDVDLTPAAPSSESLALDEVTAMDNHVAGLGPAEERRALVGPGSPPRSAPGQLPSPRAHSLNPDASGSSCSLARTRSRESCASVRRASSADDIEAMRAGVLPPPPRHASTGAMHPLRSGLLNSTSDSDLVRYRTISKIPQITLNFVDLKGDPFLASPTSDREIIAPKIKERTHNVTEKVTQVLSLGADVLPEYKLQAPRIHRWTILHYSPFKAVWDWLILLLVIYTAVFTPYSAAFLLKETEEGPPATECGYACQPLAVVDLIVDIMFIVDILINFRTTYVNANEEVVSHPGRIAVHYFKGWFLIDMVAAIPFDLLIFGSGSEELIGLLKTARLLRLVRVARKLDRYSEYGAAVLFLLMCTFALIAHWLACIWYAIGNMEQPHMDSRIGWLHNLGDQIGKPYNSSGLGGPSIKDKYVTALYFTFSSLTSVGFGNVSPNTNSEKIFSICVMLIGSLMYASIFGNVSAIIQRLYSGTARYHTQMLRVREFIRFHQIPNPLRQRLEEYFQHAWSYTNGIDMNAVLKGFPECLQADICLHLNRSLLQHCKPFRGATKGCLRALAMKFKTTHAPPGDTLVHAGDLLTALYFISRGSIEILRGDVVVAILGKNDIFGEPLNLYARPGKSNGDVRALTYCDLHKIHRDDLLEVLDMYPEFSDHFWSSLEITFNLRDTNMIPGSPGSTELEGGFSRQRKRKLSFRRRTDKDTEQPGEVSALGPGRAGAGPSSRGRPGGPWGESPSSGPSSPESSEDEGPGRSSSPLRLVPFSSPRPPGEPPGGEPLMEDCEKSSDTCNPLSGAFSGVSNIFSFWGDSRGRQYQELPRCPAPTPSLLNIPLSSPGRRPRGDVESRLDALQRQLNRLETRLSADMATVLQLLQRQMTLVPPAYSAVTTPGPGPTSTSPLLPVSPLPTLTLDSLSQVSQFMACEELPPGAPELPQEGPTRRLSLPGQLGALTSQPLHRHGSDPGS
# Epidermal growth factor receptor, sequence (P00533 whole entry): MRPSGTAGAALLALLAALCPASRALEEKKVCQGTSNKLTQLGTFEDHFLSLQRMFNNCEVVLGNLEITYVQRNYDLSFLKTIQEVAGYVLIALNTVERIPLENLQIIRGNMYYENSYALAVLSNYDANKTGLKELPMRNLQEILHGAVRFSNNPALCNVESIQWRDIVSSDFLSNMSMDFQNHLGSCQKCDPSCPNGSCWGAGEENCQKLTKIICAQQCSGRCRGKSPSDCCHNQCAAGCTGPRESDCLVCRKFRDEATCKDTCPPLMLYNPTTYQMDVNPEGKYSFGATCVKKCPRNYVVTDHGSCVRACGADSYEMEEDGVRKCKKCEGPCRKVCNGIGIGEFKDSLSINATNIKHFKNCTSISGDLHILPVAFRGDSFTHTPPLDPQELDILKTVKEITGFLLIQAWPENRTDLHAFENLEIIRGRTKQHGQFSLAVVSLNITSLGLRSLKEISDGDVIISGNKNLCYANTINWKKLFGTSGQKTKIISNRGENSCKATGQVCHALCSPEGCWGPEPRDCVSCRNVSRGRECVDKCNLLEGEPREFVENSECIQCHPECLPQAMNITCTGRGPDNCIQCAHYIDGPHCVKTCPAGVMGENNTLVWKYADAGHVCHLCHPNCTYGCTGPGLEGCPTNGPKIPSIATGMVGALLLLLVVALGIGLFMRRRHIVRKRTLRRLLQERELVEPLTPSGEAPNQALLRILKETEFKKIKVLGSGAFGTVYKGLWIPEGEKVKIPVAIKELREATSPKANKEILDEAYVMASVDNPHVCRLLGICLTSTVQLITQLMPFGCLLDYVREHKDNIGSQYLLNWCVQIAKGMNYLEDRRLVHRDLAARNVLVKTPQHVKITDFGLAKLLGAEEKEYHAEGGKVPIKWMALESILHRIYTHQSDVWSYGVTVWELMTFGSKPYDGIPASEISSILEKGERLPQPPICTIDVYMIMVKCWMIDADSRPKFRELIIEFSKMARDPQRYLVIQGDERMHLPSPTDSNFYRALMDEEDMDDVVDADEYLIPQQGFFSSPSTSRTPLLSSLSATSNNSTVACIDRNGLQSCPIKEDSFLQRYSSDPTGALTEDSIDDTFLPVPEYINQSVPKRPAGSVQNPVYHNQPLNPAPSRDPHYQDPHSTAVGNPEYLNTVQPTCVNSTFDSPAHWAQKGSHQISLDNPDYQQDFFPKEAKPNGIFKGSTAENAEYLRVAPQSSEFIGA
# Serine/threonine-protein kinase pim-1, sequence (P11309 whole entry): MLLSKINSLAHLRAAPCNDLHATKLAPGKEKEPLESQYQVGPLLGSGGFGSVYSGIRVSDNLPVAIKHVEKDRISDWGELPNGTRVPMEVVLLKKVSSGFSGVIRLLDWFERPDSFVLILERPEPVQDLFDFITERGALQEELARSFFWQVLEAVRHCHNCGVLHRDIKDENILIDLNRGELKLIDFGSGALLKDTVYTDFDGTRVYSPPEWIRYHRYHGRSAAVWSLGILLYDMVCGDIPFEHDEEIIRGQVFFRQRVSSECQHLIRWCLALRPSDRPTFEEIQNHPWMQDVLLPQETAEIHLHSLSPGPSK
# Tyrosine-protein kinase BTK, sequence (Q06187 whole entry): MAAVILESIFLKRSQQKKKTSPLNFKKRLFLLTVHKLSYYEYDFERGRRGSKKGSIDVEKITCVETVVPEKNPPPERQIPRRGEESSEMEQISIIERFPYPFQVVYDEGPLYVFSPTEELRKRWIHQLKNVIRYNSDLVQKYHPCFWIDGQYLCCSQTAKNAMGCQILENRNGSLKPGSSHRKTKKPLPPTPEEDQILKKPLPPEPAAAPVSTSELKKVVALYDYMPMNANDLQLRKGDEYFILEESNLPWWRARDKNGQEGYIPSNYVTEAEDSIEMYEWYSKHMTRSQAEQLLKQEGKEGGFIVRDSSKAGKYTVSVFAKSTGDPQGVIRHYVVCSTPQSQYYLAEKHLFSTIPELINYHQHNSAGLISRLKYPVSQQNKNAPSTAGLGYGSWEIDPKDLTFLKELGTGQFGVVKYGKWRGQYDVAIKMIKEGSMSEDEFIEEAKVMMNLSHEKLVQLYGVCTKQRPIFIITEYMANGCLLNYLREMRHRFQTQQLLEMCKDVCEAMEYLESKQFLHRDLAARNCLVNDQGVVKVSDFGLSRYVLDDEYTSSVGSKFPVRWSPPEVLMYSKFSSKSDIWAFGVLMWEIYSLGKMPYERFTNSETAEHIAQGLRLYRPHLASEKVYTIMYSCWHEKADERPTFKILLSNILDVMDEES
SMILES,IC50 [4],IC50 [8],inhibition at 10 µM (hERG (KCNH2)),other results
NCCCNc1nc(Nc2ccc3c(c2)CCCN3S(=O)(=O)c2ccccc2)ncc1C(F)(F)F,,0.166 µM,,
NCCCNc1nc(Nc2ccc3c(c2)CCS3(=O)=O)ncc1C(F)(F)F,,0.104 µM,,
NCCCNc1nc(Nc2ccc3c(c2)OCO3)ncc1C(F)(F)F,,0.237 µM,,
NCCCNc1nc(Nc2ccc3c(c2)CCC3=O)ncc1C(F)(F)F,,0.144 µM,,
NCCCNc1nc(Nc2ccc3c(c2)CCN(S(=O)(=O)C2CCCCC2)C3)ncc1C(F)(F)F,,0.1 µM,,
CS(=O)(=O)N1CCOc2cc(Nc3ncc(C(F)(F)F)c(NCCCN)n3)ccc21,,0.183 µM,,
NCCCNc1nc(Nc2ccc3c(c2)CCN(S(=O)(=O)c2ccccc2)C3)ncc1C(F)(F)F,,0.133 µM,,

# The next molecules have a lower IC50 [8] than those just listed; values first:
IC50 [4],IC50 [8],SMILES,inhibition at 10 µM (hERG (KCNH2)),other results
10.5 µM,0.0256 µM,CS(=O)(=O)N1CCc2cc(Nc3ncc(C(F)(F)F)c(NCCCN)n3)ccc2C1,36.1%,IC50 [1]: 0.833 µM; inhibition [2]: Active; IC50 [3]: > 10 µM; IC50 [5]: > 10 µM; IC50 [6]: > 10 µM; inhibition [7]: Active; IC50 [9]: 0.83485 µM; IC50 [10]: > 10 µM; IC50 [11]: 0.865 µM; IC50 [12]: > 10 µM; IC50 (Aurora kinase A): 1.86 µM
,0.0893 µM,CC(=O)c1ccc(Nc2ncc(C(F)(F)F)c(NCCCN)n2)cc1,,
,0.0936 µM,NCCCNc1nc(Nc2ccc3c(c2)COC3=O)ncc1C(F)(F)F,,
12.3 µM,0.0325 µM,CS(=O)(=O)N1CCc2cc(Nc3ncc(C(F)(F)F)c(NCCCN)n3)ccc21,39.5%,
10.9 µM,0.0386 µM,NCCCNc1nc(Nc2ccc3c(c2)CCCC3=O)ncc1C(F)(F)F,76.1%,
21.3 µM,0.0352 µM,CS(=O)(=O)N1Cc2ccc(Nc3ncc(C(F)(F)F)c(NCCCN)n3)cc2C1,23.2%,
9.81 µM,0.0289 µM,CS(=O)(=O)N1CCCc2cc(Nc3ncc(C(F)(F)F)c(NCCCN)n3)ccc21,64.2%,
